From PMC8770261, “Automatic Production and Preliminary PET Imaging of a New Imaging Agent [^18F]AlF-FAPT” (Frontiers in Oncology, 2022)

Assay: Biological distribution in normal Kunming mice (γ counter, %ID/g)
Assay type: in vivo
Conditions: tail vein injection, 60 min
Method: The biological distribution experiment of [^18F]AlF-FAPT was carried out in normal Kunming mice. Twenty Kunming mice were randomly and equally divided into four groups and each injected with 0.1 ml of [^18F]AlF-FAPT (1.48~2.22 MBq) through their tail vein. The mice were then sacrificed after 5, 30, 60, and 90 minutes, followed by weighing their organs and determining the radioactivity using a γ counter. The radioactivity of each organ was normalized using the percentage of injected dose per gram of tissue (% ID/g). [^18F]FAPI-42 also used the same method mentioned above to carry out the biological distribution at the time point of 60 minutes.

Q: For `N#C[C@@H]1CC(F)(F)CN1C(=O)CNC(=O)c1ccnc2ccc(OCCCN3CCN(C(=O)CN4CCN5CCN(CC4)CC(=O)[O][Al]([F])[O]C(=O)C5)CC3)cc12` [[^18F]FAPI-42], which “radioactivity uptake value in the gallbladder” value is on record?
A: 7.30 ± 1.43 %ID/g
